Test results as given in the supplement of paper PMC10307832.

How the values were obtained:
Assay in all cases: relative viability (nuclei count vs DMSO), 5 days (fraction); higher = more cells survive
RU-SKI 43 + AZD7762 = compound: CC[C@@H](C)CNCC(=O)N1CCC2=C([C@@H]1COC3=CC=CC(=C3)C)C=CS2 [RU-SKI 43] + NC(=O)Nc1cc(-c2cccc(F)c2)sc1C(=O)N[C@H]1CCCNC1 [AZD7762] (partner 0.2 µM)
Outline: (§1)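 Relative viability divides the nuclei count in treated wells by that in vehicle wells. Lung cancer cell lines were seeded in 1536-well plates, dosed by pin tool the next day, and fixed and stained after 5 days in one step with final 0.05% Triton X-100, 1% formaldehyde and 1 ug/ml Hoechst. Dosing was a single drug or a fixed anchor-drug dose plus five library-drug doses (not always all listed) in √10 steps, and values are medians of duplicate plates imaged at 4×.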

MK-8033 + Palbociclib = compound: Cn1cc(-c2cnc3ccc4ccc(CS(=O)(=O)NCc5ccccn5)cc4c(=O)c3c2)cn1 [MK-8033] + CC(=O)c1c(C)c2cnc(Nc3ccc(N4CCNCC4)cn3)nc2n(C2CCCC2)c1=O [Palbociclib] (partner 0.5 µM)
Outline: as §1

Irinotecan + Linsitinib = compound: CCc1c2c(nc3ccc(OC(=O)N4CCC(N5CCCCC5)CC4)cc13)-c1cc3c(c(=O)n1C2)COC(=O)[C@]3(O)CC [Irinotecan] + C[C@]1(O)C[C@@H](c2nc(-c3ccc4ccc(-c5ccccc5)nc4c3)c3c(N)nccn32)C1 [Linsitinib] (partner 1 µM)
Outline: as §1

Irinotecan + Palbociclib = compound: CCc1c2c(nc3ccc(OC(=O)N4CCC(N5CCCCC5)CC4)cc13)-c1cc3c(c(=O)n1C2)COC(=O)[C@]3(O)CC [Irinotecan] + CC(=O)c1c(C)c2cnc(Nc3ccc(N4CCNCC4)cn3)nc2n(C2CCCC2)c1=O [Palbociclib] (partner 0.5 µM)
Outline: as §1

Cell Line	relative viability (RU-SKI 43 + AZD7762; first compound 0.1 µM)	relative viability (RU-SKI 43 + AZD7762; first compound 0.3162 µM)	relative viability (RU-SKI 43 + AZD7762; first compound 1 µM)	relative viability (RU-SKI 43 + AZD7762; first compound 3.162 µM)	relative viability (RU-SKI 43 + AZD7762; first compound 10 µM)	relative viability (MK-8033 + Palbociclib; first compound 0.02 µM)	relative viability (MK-8033 + Palbociclib; first compound 0.06325 µM)	relative viability (MK-8033 + Palbociclib; first compound 0.2 µM)	relative viability (MK-8033 + Palbociclib; first compound 0.6325 µM)	relative viability (MK-8033 + Palbociclib; first compound 2 µM)	relative viability (Irinotecan + Linsitinib; first compound 0.6325 µM)	relative viability (Irinotecan + Linsitinib; first compound 2 µM)	relative viability (Irinotecan + Linsitinib; first compound 6.325 µM)	relative viability (Irinotecan + Linsitinib; first compound 20 µM)	relative viability (Irinotecan + Palbociclib; first compound 0.6325 µM)	relative viability (Irinotecan + Palbociclib; first compound 2 µM)	relative viability (Irinotecan + Palbociclib; first compound 6.325 µM)	relative viability (Irinotecan + Palbociclib; first compound 20 µM)
LOU-NH91	0.789	0.74	0.85	0.831	0.74	0.495	0.523	0.512	0.531	0.53	0.834	0.706	0.431	0.309	0.509	0.494	0.418	0.263
LU99A	0.255	0.377	0.264	0.267	0.343	0.414	0.343	0.398	0.409	0.39	0.233	0.247	0.224	0.238	0.173	0.179	0.153	0.172
LXF-289	1.13	1.11	1.14	1.09	1.03	0.612	0.579	0.61	0.597	0.596	0.951	0.414	0.2	0.186	0.527	0.279	0.251	0.23
NCI-H23	0.197	0.229	0.202	0.216	0.154	0.463	0.576	0.406	–	0.413	0.607	0.339	0.248	0.281	0.446	0.332	0.249	0.254
NCI-H322M	0.57	0.561	0.474	0.624	0.465	0.531	0.443	0.45	0.49	0.433	0.551	0.467	0.366	0.414	0.527	0.502	0.458	0.336
NCI-H358	0.475	0.585	0.574	0.591	0.484	0.144	0.129	0.128	0.136	0.151	0.681	0.671	0.36	0.251	0.123	0.143	0.108	0.0947
NCI-H441	0.795	1.55	1.23	1.22	1.17	0.182	0.189	0.217	0.275	0.238	0.547	0.339	0.241	0.341	0.207	0.211	0.218	0.175
NCI-H460	0.533	0.756	0.787	0.519	0.638	0.162	0.147	0.103	0.177	0.172	0.455	0.376	0.0862	0.0869	0.0549	0.128	0.0851	0.0574
NCI-H647	0.358	0.553	0.583	0.44	0.499	0.365	0.338	0.351	0.404	0.43	1.03	0.329	0.178	0.15	0.311	0.31	0.136	0.0705
NCI-H650	0.944	1.09	–	1.04	1.06	0.346	0.316	0.324	0.316	0.307	0.701	0.562	0.237	0.303	0.188	0.195	0.19	0.257
NCI-H727	–	0.707	0.724	0.638	0.543	0.668	0.617	0.653	0.612	0.657	0.157	0.334	0.284	0.391	0.665	0.412	0.52	0.653
NCI-H838	0.933	1.03	1	0.987	0.876	0.213	0.207	0.217	0.213	0.22	1.17	0.849	0.372	0.228	0.261	0.25	0.207	0.171
NCI-H1355	0.711	0.724	0.801	0.697	0.771	0.372	0.379	0.375	0.415	0.381	0.671	0.403	0.2	0.201	–	0.393	0.215	0.206
NCI-H1395	0.382	0.394	0.387	0.393	0.394	0.499	0.588	0.654	0.612	0.624	–	0.804	0.484	0.29	–	0.572	0.476	0.284
NCI-H1437	1.16	1.28	1.16	1.12	1.08	0.275	0.317	0.323	0.303	0.3	0.61	0.593	0.28	0.142	0.319	0.337	0.301	0.258
NCI-H1651	0.506	0.467	0.549	0.535	0.456	0.51	0.498	0.514	0.536	0.521	0.803	0.542	0.203	0.159	0.529	0.491	0.305	0.162
NCI-H1666	0.884	0.754	0.956	0.774	0.78	0.684	0.627	0.523	0.707	0.598	0.71	0.414	0.403	0.384	0.59	0.559	0.577	0.438

Cell Line	relative viability (RU-SKI 43 + AZD7762; first compound 0.1 µM)	relative viability (RU-SKI 43 + AZD7762; first compound 0.3162 µM)	relative viability (RU-SKI 43 + AZD7762; first compound 1 µM)	relative viability (RU-SKI 43 + AZD7762; first compound 3.162 µM)	relative viability (RU-SKI 43 + AZD7762; first compound 10 µM)	relative viability (MK-8033 + Palbociclib; first compound 0.02 µM)	relative viability (MK-8033 + Palbociclib; first compound 0.06325 µM)	relative viability (MK-8033 + Palbociclib; first compound 0.2 µM)	relative viability (MK-8033 + Palbociclib; first compound 0.6325 µM)	relative viability (MK-8033 + Palbociclib; first compound 2 µM)	relative viability (Irinotecan + Linsitinib; first compound 0.6325 µM)	relative viability (Irinotecan + Linsitinib; first compound 2 µM)	relative viability (Irinotecan + Linsitinib; first compound 6.325 µM)	relative viability (Irinotecan + Linsitinib; first compound 20 µM)	relative viability (Irinotecan + Palbociclib; first compound 0.6325 µM)	relative viability (Irinotecan + Palbociclib; first compound 2 µM)	relative viability (Irinotecan + Palbociclib; first compound 6.325 µM)	relative viability (Irinotecan + Palbociclib; first compound 20 µM)
NCI-H1734	0.588	0.604	0.573	0.61	0.579	0.349	0.309	0.342	0.331	0.371	0.797	0.355	0.155	0.195	–	0.256	0.193	0.373
NCI-H1755	0.42	0.504	0.46	0.411	0.359	0.452	0.452	0.413	0.464	0.417	0.927	0.396	0.303	0.366	0.405	0.446	0.438	0.486
NCI-H1792	0.623	0.753	0.656	0.712	0.686	0.637	0.63	0.557	0.606	0.615	0.613	0.528	0.21	0.107	0.63	0.555	0.435	0.254
NCI-H1793	0.56	0.719	0.641	0.447	0.29	0.263	–	0.274	0.288	0.291	–	0.609	0.272	0.341	–	0.222	0.203	0.265
NCI-H1915	0.699	0.833	0.702	0.672	0.688	0.538	0.525	0.496	0.492	0.483	0.374	0.238	0.187	0.171	0.224	0.182	0.137	0.121
NCI-H1944	0.591	0.579	0.447	0.589	0.502	0.306	0.316	0.348	0.324	0.327	0.819	0.38	0.241	0.249	0.227	0.173	0.179	0.17
NCI-H1975	0.763	0.748	0.97	0.671	0.803	0.579	0.469	0.51	0.339	0.602	1.1	0.803	0.326	0.204	0.304	0.557	0.314	0.219
NCI-H1993	0.677	0.775	0.807	0.712	0.688	0.563	0.566	0.453	0.649	0.424	0.688	0.608	0.643	0.693	–	0.513	0.521	1.01
NCI-H2085	1.02	0.856	0.948	1.08	1.02	0.468	0.479	0.499	0.484	0.474	0.584	0.672	0.381	0.497	0.461	0.344	0.382	0.358
NCI-H2087	1.33	1.65	1.3	1.36	1.31	0.193	0.21	0.248	0.26	0.235	0.453	0.313	0.252	0.298	0.192	0.219	0.174	0.204
NCI-H2126	1.05	1.17	1.09	1.05	1.04	0.336	0.37	0.346	0.353	0.311	–	0.414	0.355	0.335	0.342	0.242	0.323	0.381
NCI-H2347	0.732	0.74	0.812	0.614	0.642	0.368	0.408	0.428	0.441	0.464	0.761	0.739	0.498	0.5	0.397	0.459	0.456	0.465
NCI-H2405	0.801	0.83	0.876	0.84	0.452	0.515	0.505	0.512	0.514	0.555	–	0.763	0.294	0.18	–	0.547	0.305	0.143
NCI-H3122	0.957	1.27	1.01	1.15	0.95	0.155	0.173	0.19	0.191	0.223	0.902	0.293	0.24	0.22	0.155	0.114	0.16	0.126
PC-3 [JPC-3]	0.885	0.671	0.828	0.834	0.336	0.506	–	0.505	0.516	0.554	0.842	0.413	0.377	0.412	0.566	0.557	0.529	0.338
PC-14	0.392	0.377	0.441	0.32	0.379	0.517	0.422	0.542	0.553	0.464	0.902	0.609	0.188	0.204	0.378	0.34	0.183	0.148
RERF-LC-KJ	0.97	1.01	1.21	1.17	1.04	1.11	1.07	1.01	1.08	1.08	0.807	0.647	0.379	0.34	1.02	0.819	0.405	0.265
